Our source for the stability values is patent US20110039901A1, “PROCESS FOR PREPARING A CRYSTALLINE FORM COMPOUND OF 3-BENZYL-2-METHYL-2,3,3a,4,5,6,7,7a-OCTAHYDROBENZO[d]ISOXAZOL-4-ONE” (Abiogen Pharma S.P.A., priority 2008, published 2011).

The nature of this data set: stability of the hydrochloride salt at elevated temperature. Conditions: at temperatures above 30° C. It is filed as physicochemical.

For `CN1OC2CCCC(=O)C2C1Cc1ccccc1.Cl` (stereo not shown) [hydrochloride salt of BTG 1640], the stability at temperature entry is listed as “unstable”.
